pEC50: −log10 of the molar value.

The first assay relates to Bmi-1 protein. The assay is described as follows: Sandwich ELISA Assay (Bmi-1 protein level in HT-1080 cells after compound treatment). It counts as cell-based. The following applies: Table 1, Bmi-1 sandwich ELISA, read-out: ELISA EC50 value for Bmi-1 protein. In a few lines:
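HT-1080 cells exposed to compounds for 40–48 h at 37 °C (0.5% DMSO final), then lysed. Bmi-1 in lysates measured by sandwich ELISA (mouse monoclonal capture, rabbit anti-Bmi-1 detection, HRP anti-rabbit, TMB), read at OD450 with OD570 reference against a recombinant Bmi-1 standard curve (0–8000 pg/mL).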
Background: An ELISA detects its analyte on a solid surface through an enzyme-linked reagent.
As a reminder, the pEC50 is the negative decadic logarithm of the EC50, by convention in mol/L. Turning to `Fc1cnc2nc(C3CC3)n(-c3cncc(Nc4ccc(OC(F)F)cc4)n3)c2c1` [compound 455, 6-(2-cyclopropyl-6-fluoro-1H-imidazo[4,5-b]pyridin-1-yl)-N-[4-(difluoromethoxy)phenyl]pyrazin-2-amine], the pEC50 was 7.00 to 8.00.

Turning to `Fc1cnc2nc(C3CC3)n(-c3cncc(Nc4ccc(OC(F)(F)F)cc4)n3)c2c1` [compound 456, 6-(2-cyclopropyl-6-fluoro-1H-imidazo[4,5-b]pyridin-1-yl)-N-[4-(trifluoromethoxy)phenyl]pyrazin-2-amine], the pEC50 was 5.52 to 7.00.

As to `Cc1nc2ccccc2n1-c1cncc(Nc2ccc(C(F)(F)F)cn2)n1` [compound 457, 6-(2-methyl-1H-benzimidazol-1-yl)-N-[5-(trifluoromethyl)pyridin-2-yl]pyrazin-2-amine], the pEC50 was 5.52 to 7.00.

Regarding `Fc1cnc2nc(C3CC3)n(-c3cncc(Nc4ccc(C(F)(F)F)nc4)n3)c2c1` [compound 458, 6-(2-cyclopropyl-6-fluoro-1H-imidazo[4,5-b]pyridin-1-yl)-N-[6-(trifluoromethyl)pyridin-3-yl]pyrazin-2-amine], the pEC50 was 5.52 to 7.00.

Take `Fc1cnc2nc(C3CC3)n(-c3cncc(Nc4ccc(OC(F)F)c(F)c4)n3)c2c1` [compound 459, 6-(2-cyclopropyl-6-fluoro-1H-imidazo[4,5-b]pyridin-1-yl)-N-[4-(difluoromethoxy)-3-fluorophenyl]pyrazin-2-amine]: the pEC50 is 7.00 to 8.00.

`Fc1cc2nc(C3CC3)n(-c3cncc(Nc4ccc(OC(F)F)cc4)n3)c2cc1F` [compound 460, 6-(2-cyclopropyl-5,6-difluoro-1H-benzimidazol-1-yl)-N-[4-(difluoromethoxy)phenyl]pyrazin-2-amine]: the negative-log EC50 (pEC50) is 7.00 to 8.00.

With `N#Cc1cc(Nc2ccc(OC(F)F)c(F)c2)nc(-n2c(C3CC3)nc3c(F)cc(F)cc32)c1` [compound 476, 2-(2-cyclopropyl-4,6-difluoro-1H-benzimidazol-1-yl)-6-{[4-(difluoromethoxy)-3-fluorophenyl]amino}pyridine-4-carbonitrile], the negative logarithm of the EC50 (pEC50) was 7.00 to 8.00.

`FC(F)Oc1ccc(Nc2cncc(-c3cnc4ccccn34)n2)cc1` [compound 477, N-[4-(difluoromethoxy)phenyl]-6-(imidazo[1,2-a]pyridin-3-yl)pyrazin-2-amine]: the pEC50 is 5.52 to 7.00.

For the compound `N#Cc1cc(Nc2ccc(C(F)(F)F)cc2)nc(-n2c(C3CC3)nc3ncc(F)cc32)c1` [compound 490, 2-(2-cyclopropyl-6-fluoro-1H-imidazo[4,5-b]pyridin-1-yl)-6-{[4-(trifluoromethyl)phenyl]amino}pyridine-4-carbonitrile], the pEC50 is 7.00 to 8.00.

Turning to `Cc1nc2cc(F)c(F)cc2n1-c1c[n+]([O-])cc(Nc2ccc(C(F)(F)F)cc2)n1` [compound 495, 6-(5,6-difluoro-2-methyl-1H-benzimidazol-1-yl)-N-[4-(trifluoromethyl)phenyl]pyrazin-2-amine 4-oxide], the pEC50 is 7.00 to 8.00.

Regarding `Cc1nc2ccccc2n1-c1cc(N)cc(Nc2ccc(OC(F)F)cc2)n1` [compound 496, N^2-[4-(difluoromethoxy)phenyl]-6-(2-methyl-1H-benzimidazol-1-yl)pyridine-2,4-diamine], the pEC50 was 7.00 to 8.00.

For `Cc1nn2ccccc2c1-c1cncc(Nc2ccc(OC(F)F)cc2)n1` [compound 498, N-[4-(difluoromethoxy)phenyl]-6-(2-methylpyrazolo[1,5-a]pyridin-3-yl)pyrazin-2-amine], the pEC50 is 8.00 to 9.00.

In the case of `Cc1nc2ccccc2n1-c1cc(F)cc(Nc2ccc(OC(F)F)cc2)n1` [compound 499, N-[4-(difluoromethoxy)phenyl]-4-fluoro-6-(2-methyl-1H-benzimidazol-1-yl)pyridin-2-amine], the negative logarithm of the EC50 (pEC50) was 7.00 to 8.00.

As for `Cc1nn2ccccc2c1-c1cncc(Nc2ccc(OC(F)(F)F)cc2)n1` [compound 500, 6-(2-methylpyrazolo[1,5-a]pyridin-3-yl)-N-[4-(trifluoromethoxy)phenyl]pyrazin-2-amine], the negative-log EC50 (pEC50) was 7.00 to 8.00.

For `Cc1nc2cc(F)c(F)cc2n1-c1cncc(Nc2ccc(C=O)cc2)n1` [compound 502, 4-{[6-(5,6-difluoro-2-methyl-1H-benzimidazol-1-yl)pyrazin-2-yl]amino}benzaldehyde], the pEC50 is 7.00 to 8.00.

For the compound `CCc1nc2cc(F)c(F)cc2n1-c1cc(N)cc(Nc2ccc(C(F)(F)F)cc2)n1` [compound 503, 6-(2-ethyl-5,6-difluoro-1H-benzimidazol-1-yl)-N^2-[4-(trifluoromethyl)phenyl]pyridine-2,4-diamine], the pEC50 is 7.00 to 8.00.

`Nc1cc(Nc2ccc(C(F)(F)F)cc2)nc(-n2c(C3CC3)nc3cc(F)c(F)cc32)c1` [compound 504, 6-(2-cyclopropyl-5,6-difluoro-1H-benzimidazol-1-yl)-N^2-[4-(trifluoromethyl)phenyl]pyridine-2,4-diamine]: the pEC50 was 7.00 to 8.00.

Regarding `Cc1nc2cc(F)c(F)cc2n1-c1cc(N)c(F)c(Nc2ccc(C(F)(F)F)cc2)n1` [compound 505, 6-(5,6-difluoro-2-methyl-1H-benzimidazol-1-yl)-3-fluoro-N^2-[4-(trifluoromethyl)phenyl]pyridine-2,4-diamine], the pEC50 was 7.00 to 8.00.

`Cc1nc2ccccc2n1-c1cncc(Nc2ccc(C(F)(F)F)c(N)c2)n1` [compound 506, N^1-[6-(2-methyl-1H-benzimidazol-1-yl)pyrazin-2-yl]-4-(trifluoromethyl)benzene-1,3-diamine]: the pEC50 is 7.00 to 8.00.

For `Cc1nc2ccccc2n1-c1cncc(Nc2ccc(C(F)F)cc2)n1` [compound 507, N-[4-(difluoromethyl)phenyl]-6-(2-methyl-1H-benzimidazol-1-yl)pyrazin-2-amine], the pEC50 was 7.00 to 8.00.

With `Cc1nc2ccccc2n1-c1cncc(Nc2ccc(C(F)F)c(F)c2)n1` [compound 508, N-[4-(difluoromethyl)-3-fluorophenyl]-6-(2-methyl-1H-benzimidazol-1-yl)pyrazin-2-amine], the negative-log EC50 (pEC50) is 7.00 to 8.00.

In the case of `CCc1nc2cc(F)c(F)cc2n1-c1cc(N)c(F)c(Nc2ccc(C(F)(F)F)cc2)n1` [compound 509, 6-(2-ethyl-5,6-difluoro-1H-benzimidazol-1-yl)-3-fluoro-N^2-[4-(trifluoromethyl)phenyl]pyridine-2,4-diamine], the pEC50 was 7.00 to 8.00.

Consider `CCc1nc2ccccc2n1-c1cc(N)cc(Nc2ccc(C(F)(F)F)cc2)n1` [compound 510, 6-(2-ethyl-1H-benzimidazol-1-yl)-N^2-[4-(trifluoromethyl)phenyl]pyridine-2,4-diamine], for which the pEC50 is 7.00 to 8.00.

`Cc1nn2ccccc2c1-c1cc(C#N)cc(Nc2ccc(OC(F)F)cc2)n1` [compound 512, 2-{[4-(difluoromethoxy)phenyl]amino}-6-(2-methylpyrazolo[1,5-a]pyridin-3-yl)pyridine-4-carbonitrile]: the pEC50 is 7.00 to 8.00.

With `Cc1nn2ccccc2c1-c1cc(C#N)cc(Nc2ccc(OC(F)F)c(F)c2)n1` [compound 513, 2-{[4-(difluoromethoxy)-3-fluorophenyl]amino}-6-(2-methylpyrazolo[1,5-a]pyridin-3-yl)pyridine-4-carbonitrile], the pEC50 is 7.00 to 8.00.

Consider `Cc1nn2ccccc2c1-c1cc(C#N)cc(Nc2ccc(OC(F)(F)F)cc2)n1` [compound 514, 2-(2-methylpyrazolo[1,5-a]pyridin-3-yl)-6-{[4-(trifluoromethoxy)phenyl]amino}pyridine-4-carbonitrile], for which the pEC50 was 5.52 to 7.00.

As to `Cc1nc2ccccc2n1-c1cc(N)c(F)c(Nc2ccc(C(F)(F)F)cc2)n1` [compound 515, 3-fluoro-6-(2-methyl-1H-benzimidazol-1-yl)-N^2-[4-(trifluoromethyl)phenyl]pyridine-2,4-diamine], the pEC50 is 7.00 to 8.00.

With `Cc1nc2cc(F)c(F)cc2n1-c1c[n+]([O-])cc(Nc2ccc(OC(F)F)cc2)n1` [compound 516, N-[4-(difluoromethoxy)phenyl]-6-(5,6-difluoro-2-methyl-1H-benzimidazol-1-yl)pyrazin-2-amine 4-oxide], the pEC50 was 7.00 to 8.00.

Regarding `Cc1nc2ccccc2n1-c1cncc(Nc2ccc(C(F)(F)F)c(C#N)c2)n1` [compound 517, 5-{[6-(2-methyl-1H-benzimidazol-1-yl)pyrazin-2-yl]amino}-2-(trifluoromethyl)benzonitrile], the pEC50 is 5.52 to 7.00.

For the compound `Cc1nc2ccccc2n1-c1cncc(Nc2ccc(C(F)(F)F)c(CO)c2)n1` [compound 519], the pEC50 was 7.00 to 8.00.

As for `CCc1nn2ccccc2c1-c1cncc(Nc2ccc(C(F)(F)F)cc2)n1` [compound 520, 6-(2-ethylpyrazolo[1,5-a]pyridin-3-yl)-N-[4-(trifluoromethyl)phenyl]pyrazin-2-amine], the pEC50 is 8.00 to 9.00.

Consider `CCc1nn2ccccc2c1-c1cncc(Nc2ccc(OC(F)F)cc2)n1` [compound 521, N-[4-(difluoromethoxy)phenyl]-6-(2-ethylpyrazolo[1,5-a]pyridin-3-yl)pyrazin-2-amine], for which the pEC50 is 8.00 to 9.00.

The same assay, now with this note: read-out: ELISA EC50 value for Bmi-1 protein, Table 1, Bmi-1 sandwich ELISA.
On to `Cn1nc2c(c1-c1cncc(Nc3ccc(C(F)(F)F)cc3)n1)CCCC2` [compound 454, 6-(2-methyl-4,5,6,7-tetrahydro-2H-indazol-3-yl)-N-[4-(trifluoromethyl)phenyl]pyrazin-2-amine], for which the pEC50 is 8.00 to 9.00.

Turning to `Cc1nc2ccccc2n1-c1ccc(N)c(Nc2ccc(C(F)(F)F)cc2)n1` [compound 465, 6-(2-methyl-1H-benzimidazol-1-yl)-N^2-[4-(trifluoromethyl)phenyl]pyridine-2,3-diamine], the pEC50 was 5.52 to 7.00.

Consider `Cc1nn2ccccc2c1-c1cncc(Nc2ccc(C(F)(F)F)cc2)n1` [compound 497, 6-(2-methylpyrazolo[1,5-a]pyridin-3-yl)-N-[4-(trifluoromethyl)phenyl]pyrazin-2-amine], for which the pEC50 is 8.00 to 9.00.

As for `Cc1nn2ccccc2c1-c1cc(C#N)cc(Nc2ccc(C(F)(F)F)cc2)n1` [compound 511, 2-(2-methylpyrazolo[1,5-a]pyridin-3-yl)-6-{[4-(trifluoromethyl)phenyl]amino}pyridine-4-carbonitrile], the negative-log EC50 (pEC50) was 7.00 to 8.00.

These data come from patent publication US10584115B2, “Substituted pyridine and pyrazine BMI-1 inhibitors” (PTC Therapeutics, Inc., priority 2013, dated 2020).
